Where two headings read alike, the source gives them in different places.
What was measured:
[1] = Particle size distribution by laser-diffraction method (Mastersizer 2000, dry mode); format: physicochemical; conditions: dispersion air pressure 2 Bar, volume conversion
Text: The acetaminophen to be used in the manufacturing method of the present invention (also referred to as “the present acetaminophen”) has a particle size distribution such that d10 is generally 5 to 300 μm, preferably 10 to 200 μm, more preferably 15 to 100 μm, and d90 is generally 200 to 900 μm, preferably 250 to 800 μm, more preferably 300 to 700 μm. Although there are some differences in the particle size distribution among lots, the unpulverized acetaminophen generally has the above-specified particle size distribution. In contrast, although there are some differences in the particle size distribution of a pulverized product of acetaminophen among the manufacturers of the drug substance and production lots, the particle size distribution of a pulverized product of acetaminophen is generally such that the d10 is 3 to 10 μm and d90 is 100 to 250 μm, and therefore the particle diameters of the pulverized product of acetaminophen are smaller compared with those of the present acetaminophen. In the present invention, the particle size distribution is determined by a volume distribution evaluation employing a laser-diffraction scattering method (Mastersizer 2000: Malvern), and the terms “d10”, “d50”, and “d90” refer to particle diameters at a volume cumulative 10% point, a volume cumulative 50% point, and a volume cumulative 90% point, respectively, as observed from the smaller diameter side in the particle size distribution.
Each of unpulverized products of acetaminophen (lots A to D) and a pulverized product of acetaminophen (lot P) was subjected to a particle size distribution measurement using a particle measurement method (a dry mode measurement) by a laser-diffraction method. As a machine, a dry automated dispersion unit microtray (Mastersizer 2000, Malvern) was used, the dispersion compression air pressure was 2 Bar, and the analysis of particle size distribution was performed by a volume conversion method. The results of lots E, F, Q, and R are data which were obtained by another company using a different measurement apparatus under different measurement conditions from those employed in the test of the present invention. As shown in the results of Table 1, difference may sometimes occur depending on the measurement conditions and measurement apparatuses used in the measurement of particle size distribution.

[2] = data of another company, different apparatus and conditions; cited from earlier work

Row | SMILES | D10 [1] [μm] | D90 [1] [μm] | D10 [2] [μm] | D90 [2] [μm]
1 | CC(=O)Nc1ccc(O)cc1 [Lot A, acetaminophen] | 20 | 320 | – | –
2 | CC(=O)Nc1ccc(O)cc1 [Lot B, acetaminophen] | 30 | 551 | – | –
3 | CC(=O)Nc1ccc(O)cc1 [Lot C, acetaminophen] | 26 | 419 | – | –
4 | CC(=O)Nc1ccc(O)cc1 [Lot D, acetaminophen] | 20 | 464 | – | –
5 | CC(=O)Nc1ccc(O)cc1 [Lot E, acetaminophen] | – | – | 93 | 559
6 | CC(=O)Nc1ccc(O)cc1 [Lot F, acetaminophen] | – | – | 220 | 663
7 | CC(=O)Nc1ccc(O)cc1 [Lot P, acetaminophen] | 3.7 | 166 | – | –
8 | CC(=O)Nc1ccc(O)cc1 [Lot Q, acetaminophen] | – | – | 5.8 | 104
9 | CC(=O)Nc1ccc(O)cc1 [Lot R, acetaminophen] | – | – | 9.7 | 192
